This note sets out measurements from ChEMBL document CHEMBL1201862, “PubChem BioAssay data set” (2004).

SMILES strings stand for the structures.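 Method: 48-hour compound exposure of cells in 96-well plates, five concentrations, linear interpolation of endpoints. Abbreviation: GI50, concentration required for 50% inhibition of growth.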 Active and inactive are the calls of the source. No stated cut-off is given here; in the data, active = GI50 up to about 1.1 µM and inactive = higher. Where only a bound is given, the exact number is not on record here.

Some test systems named below: 786-0; ACHN; BT-549; CAKI-1; HCT-15; HOP-92; KM12; NCI-H226; NCI-H23; NCI-H522; NCI/ADR-RES; OVCAR-3; OVCAR-4; PC-3; SF-268; SK-MEL-5; U-251; UO-31; HL-60; HCC 2998.
What all share (experiment): NCI anticancer screen, dose series, 48 h

For the compound `Cc1csc(N/C=C2\C(=O)Oc3ccccc3C2=O)n1`, the GI50 in the assay on 786-0 is 34.8 µM (inactive); in the assay with ACHN, 9.02 µM (inactive); with BT-549, 25.6 µM (inactive); in the assay with CAKI-1, 19.8 µM (inactive); in the assay with HCT-15 it was 22.5 µM; in the assay with HOP-92 it was 17.9 µM (inactive). Further, the GI50 is 40 µM (inactive) in the assay with KM12; 24.2 µM (inactive) with NCI-H226; 18.2 µM (inactive) in the assay with NCI-H23; 26.4 µM (inactive) in the assay on NCI-H522; 35.7 µM (inactive) in the assay on NCI/ADR-RES; 26.7 µM (inactive) with OVCAR-3. Further, the GI50 was 32.7 µM (inactive) with OVCAR-4; 30.2 µM (inactive) with PC-3; 26.5 µM (inactive) in the assay with SF-268; 23.9 µM (inactive) with SK-MEL-5; 26.2 µM (inactive) with U-251; 11.7 µM (inactive) with UO-31.

In the case of `O=[N+]([O-])c1ccc2c3ccccc3[s+]([O-])c2c1` (stereo not given), the GI50 was > 100 µM (inactive) with 786-0; > 100 µM (inactive) in the assay on ACHN; > 100 µM (inactive) in the assay on BT-549; > 100 µM (inactive) in the assay with CAKI-1; over 100 µM with HCT-15; 88.5 µM (inactive) with HL-60. Also, the GI50 in the assay on HOP-92, with KM12, with NCI-H226, in the assay on NCI-H23, with NCI-H522 and in the assay with NCI/ADR-RES was > 100 µM (inactive) each time. Further, the GI50 in the assay with OVCAR-3 was 33 µM (inactive); with OVCAR-4, > 100 µM (inactive); with PC-3, > 100 µM (inactive); in the assay with SF-268, > 100 µM (inactive); in the assay with SK-MEL-5 it was > 100 µM (inactive); in the assay on U-251, > 100 µM (inactive).

`COc1ccc(CNc2nc(NCc3ccc(OC)cc3)nc(N3CCOCC3)n2)cc1`: the GI50 in the assay with 786-0 was 5.25 µM (inactive); in the assay on ACHN it was 5.62 µM (inactive); in the assay with BT-549 it was 19.1 µM (inactive); in the assay on CAKI-1, 2.71 µM (inactive); with HCT-15, 2.29 µM; in the assay with HL-60, 2.74 µM (inactive). The GI50 is 22.8 µM (inactive) with HOP-92; 2.34 µM (inactive) in the assay on KM12; 19.2 µM (inactive) in the assay with NCI-H226; 3.91 µM (inactive) in the assay on NCI-H23; 3.95 µM (inactive) with NCI-H522; 2.84 µM (inactive) in the assay with NCI/ADR-RES. The GI50 in the assay on OVCAR-3 is 2.44 µM (inactive); in the assay on OVCAR-4, 15.5 µM (inactive); in the assay with PC-3, 4.05 µM (inactive); in the assay on SK-MEL-5 it was 5.41 µM (inactive); in the assay on U-251 it was 4.43 µM (inactive); in the assay on UO-31, 62.8 µM (inactive).

As to `COc1ccc(/C=N/n2c(Cc3ccc(Cl)cc3)n[nH]c2=O)cc1`, the GI50 in the assay on 786-0 was 17.7 µM (inactive); in the assay on ACHN, 45.1 µM (inactive); in the assay on BT-549 it was 32.4 µM (inactive); with CAKI-1, 30.8 µM (inactive); with HCC 2998, > 100 µM (inactive); in the assay with HCT-15, 38 µM. In addition, the GI50 with HOP-92 was 17.3 µM (inactive); in the assay on KM12 it was > 100 µM (inactive); with NCI-H226, 36.2 µM (inactive); with NCI-H23 it was 22 µM (inactive); in the assay with NCI/ADR-RES, 32.8 µM (inactive); in the assay on OVCAR-3, > 100 µM (inactive). The GI50 in the assay on OVCAR-4 was > 100 µM (inactive); in the assay with PC-3, 92.5 µM (inactive); in the assay on U-251 it was 14.3 µM (inactive); in the assay on UO-31, > 100 µM (inactive).

As for `N#CC(C#N)/N=N/c1ccc(-c2nc3ccccc3s2)cc1`, the GI50 in the assay with 786-0 is 8.36 µM (inactive); in the assay on ACHN, 3.68 µM (inactive); in the assay on BT-549 it was 5.19 µM (inactive); in the assay on CAKI-1 it was 2.81 µM (inactive); with HCT-15, 3.59 µM; in the assay on HOP-92 it was 1.48 µM (inactive). The GI50 is 2.93 µM (inactive) in the assay with NCI-H23; 2.65 µM (inactive) in the assay with NCI-H522; 3.54 µM (inactive) in the assay on NCI/ADR-RES; 6.49 µM (inactive) with OVCAR-4; 2.8 µM (inactive) with PC-3; 2.74 µM (inactive) in the assay on SK-MEL-5. Besides, in the assay on UO-31, the GI50 is 7.46 µM (inactive).

On to `CCOC(=O)c1ccc(/N=C/C=C(\Nc2ccc(C(=O)OCC)cc2)c2ccc3ccccc3c2)cc1`, for which the GI50 in the assay with 786-0 was 23.3 µM (inactive); with ACHN, 30.5 µM (inactive); in the assay with BT-549, 17 µM (inactive); in the assay with CAKI-1 it was 25 µM (inactive); in the assay with HCT-15 it was 20.7 µM; with HL-60, 25.4 µM (inactive). Further, the GI50 in the assay on HOP-92 is 78 µM (inactive); in the assay with KM12, 17.2 µM (inactive); in the assay with NCI-H226, 34 µM (inactive); in the assay on NCI-H23 it was 21 µM (inactive); in the assay on NCI-H522 it was 27.5 µM (inactive); in the assay on NCI/ADR-RES it was 21.5 µM (inactive). Besides, the GI50 was 23.1 µM (inactive) with OVCAR-3; 26.4 µM (inactive) in the assay on OVCAR-4; 31.3 µM (inactive) in the assay with PC-3; 42.1 µM (inactive) with SF-268; 18.3 µM (inactive) in the assay on SK-MEL-5; 32.8 µM (inactive) in the assay on U-251. For the same compound, in the assay on UO-31, the GI50 is 40.8 µM (inactive).

In the case of `CN(C)c1ccc(/C=N\NC(=O)CSCC(=O)N/N=C/c2ccc(N(C)C)cc2)cc1`, the GI50 was 55.1 µM (inactive) in the assay with 786-0; 43.4 µM (inactive) in the assay with ACHN; 23.8 µM (inactive) in the assay on BT-549; 64.1 µM (inactive) in the assay on CAKI-1; 16.4 µM with HCT-15; 70.5 µM (inactive) in the assay on HL-60. Also, the GI50 in the assay with HOP-92 was > 100 µM (inactive); in the assay on KM12 it was 41.2 µM (inactive); in the assay with NCI-H226, 34.2 µM (inactive); in the assay on NCI-H23 it was 49.9 µM (inactive); in the assay with NCI-H522, 27.6 µM (inactive); with NCI/ADR-RES, 36 µM (inactive). The GI50 was 68.9 µM (inactive) with OVCAR-3; 43.9 µM (inactive) with OVCAR-4; 45.2 µM (inactive) with PC-3; > 100 µM (inactive) with SF-268; 30 µM (inactive) with SK-MEL-5; 25.9 µM (inactive) in the assay with U-251. For the same compound, the GI50 in the assay on UO-31 was 30.8 µM (inactive).

For `CC(=O)Nc1ccccc1C=C1c2ccccc2-c2ccccc21`, the GI50 in the assay with 786-0 is 19.9 µM (inactive); in the assay with ACHN it was 42.7 µM (inactive); with BT-549 it was 24.8 µM (inactive); in the assay on CAKI-1 it was 63 µM (inactive); with HCC 2998, 84.9 µM (inactive); in the assay with HCT-15, 45.8 µM. Moreover, the GI50 is > 100 µM (inactive) in the assay on HL-60; > 100 µM (inactive) with KM12; 28 µM (inactive) in the assay with NCI-H226; 25.2 µM (inactive) in the assay with NCI-H23; 20.2 µM (inactive) in the assay with NCI-H522; 18.7 µM (inactive) in the assay with NCI/ADR-RES. Besides, the GI50 is 25.1 µM (inactive) in the assay with OVCAR-3; 27.9 µM (inactive) in the assay with OVCAR-4; 41.8 µM (inactive) in the assay on PC-3; > 100 µM (inactive) in the assay with SF-268; 57.3 µM (inactive) in the assay on SK-MEL-5; 23.2 µM (inactive) in the assay on U-251. Also, the GI50 in the assay with UO-31 was 16.2 µM (inactive).
